Data reported in PubChem BioAssay (NCI).
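Abbreviation: GI50, concentration required for 50% inhibition of growth. TGI marks complete inhibition of growth.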

Assays:
Test in all cases: growth of human tumour cells (NCI), 384-well format; in the data active = GI50 below about 0.43 µM; inactive = the rest
SK-MEL-2 melanoma = tested on: SK-MEL-2 melanoma
COLO 205 colon = tested on: COLO 205 colon
NCI-H226 lung = tested on: NCI-H226 lung
HL-60(TB) leukemia = tested on: HL-60(TB) leukemia
BT-549 breast = tested on: BT-549 breast
SNB-19 CNS = tested on: SNB-19 CNS
EKVX NSCLC = tested on: EKVX NSCLC
NCI/ADR-RES ovarian = tested on: NCI/ADR-RES ovarian
KM12 colon = tested on: KM12 colon
CAKI-1 renal = tested on: CAKI-1 renal
HOP-62 NSCLC = tested on: HOP-62 NSCLC
MDA-MB-468 breast = tested on: MDA-MB-468 breast
NCI-H460 NSCLC = tested on: NCI-H460 NSCLC
UACC-62 melanoma = tested on: UACC-62 melanoma
HCT-116 colon = tested on: HCT-116 colon
SF-268 CNS = tested on: SF-268 CNS
HOP-92 NSCLC = tested on: HOP-92 NSCLC
K-562 leukemia = tested on: K-562 leukemia
OVCAR-5 ovarian = tested on: OVCAR-5 ovarian
A498 renal = tested on: A498 renal
SK-MEL-28 melanoma = tested on: SK-MEL-28 melanoma
OVCAR-8 ovarian = tested on: OVCAR-8 ovarian
CCRF-CEM leukemia = tested on: CCRF-CEM leukemia
SN12C renal = tested on: SN12C renal
A549 NSCLC = tested on: A549 NSCLC
SR leukemia = tested on: SR leukemia
IGROV1 ovarian = tested on: IGROV1 ovarian
OVCAR-3 ovarian = tested on: OVCAR-3 ovarian
HCT-15 colon = tested on: HCT-15 colon
M14 melanoma = tested on: M14 melanoma
MCF7 breast = tested on: MCF7 breast
TK-10 renal = tested on: TK-10 renal
SK-OV-3 ovarian = tested on: SK-OV-3 ovarian
HCC-2998 colon = tested on: HCC-2998 colon
SF-539 CNS = tested on: SF-539 CNS
UO-31 renal = tested on: UO-31 renal
DU-145 prostate = tested on: DU-145 prostate
NCI-H23 lung = tested on: NCI-H23 lung
ACHN renal = tested on: ACHN renal
SNB-75 CNS = tested on: SNB-75 CNS
MALME-3M melanoma = tested on: MALME-3M melanoma
MDA-MB-435 melanoma = tested on: MDA-MB-435 melanoma
PC-3 prostate = tested on: PC-3 prostate
NCI-H522 lung = tested on: NCI-H522 lung
MDA-MB-231 breast = tested on: MDA-MB-231 breast
786-0 renal = tested on: 786-0 renal
SF-295 CNS = tested on: SF-295 CNS

Cc1[nH]c2ccccc2c1CCNCc1ccc(/C=C/C(=O)NO)cc1
65.3 nM: TGI (SNB-19 CNS)
28.6 nM: TGI (CAKI-1 renal) | TGI (OVCAR-8 ovarian)
41.3 nM: TGI (SF-295 CNS)
active: GI50 (SK-MEL-2 melanoma) < 10 nM | GI50 (COLO 205 colon) 12.3 nM | GI50 (NCI-H226 lung) 35.9 nM | GI50 (HL-60(TB) leukemia) < 10 nM | GI50 (BT-549 breast) 43.4 nM | GI50 (SNB-19 CNS) 23.4 nM | GI50 (EKVX NSCLC) 42.7 nM | GI50 (NCI/ADR-RES ovarian) 39 nM | GI50 (KM12 colon) 23.1 nM | GI50 (CAKI-1 renal) 13.1 nM | GI50 (HOP-62 NSCLC) 13.1 nM | GI50 (MDA-MB-468 breast) < 10 nM | GI50 (NCI-H460 NSCLC) 12.5 nM | GI50 (UACC-62 melanoma) < 10 nM | GI50 (HCT-116 colon) < 10 nM | GI50 (SF-268 CNS) 15.2 nM | GI50 (HOP-92 NSCLC) 13.3 nM | GI50 (K-562 leukemia) < 10 nM | GI50 (OVCAR-5 ovarian) 10.1 nM | GI50 (A498 renal) 16.6 nM | GI50 (SK-MEL-28 melanoma) 15.3 nM | GI50 (OVCAR-8 ovarian) < 10 nM | GI50 (CCRF-CEM leukemia) < 10 nM | GI50 (SN12C renal) 18.6 nM | GI50 (A549 NSCLC) 15.6 nM | GI50 (SR leukemia) < 10 nM | GI50 (IGROV1 ovarian) 10.8 nM | GI50 (OVCAR-3 ovarian) 16.7 nM | GI50 (HCT-15 colon) 51.5 nM | GI50 (M14 melanoma) 14.7 nM | GI50 (MCF7 breast) < 11 nM | GI50 (TK-10 renal) 17.3 nM | GI50 (SK-OV-3 ovarian) 15.4 nM | GI50 (HCC-2998 colon) 15.1 nM | GI50 (SF-539 CNS) 18.6 nM | GI50 (UO-31 renal) 31.8 nM | GI50 (DU-145 prostate) < 10 nM | GI50 (NCI-H23 lung) 13.9 nM | GI50 (ACHN renal) 20.3 nM | GI50 (SNB-75 CNS) < 12.4 nM | GI50 (MALME-3M melanoma) < 10 nM | GI50 (MDA-MB-435 melanoma) 18.1 nM | GI50 (PC-3 prostate) 14.2 nM | GI50 (NCI-H522 lung) < 10 nM | GI50 (MDA-MB-231 breast) 12.1 nM | GI50 ([…]-0 renal) 21.4 nM | GI50 (SF-295 CNS) 18.5 nM
42.2 nM: TGI (A549 NSCLC)
30.5 nM: TGI (MDA-MB-231 breast)
17.9 nM: TGI (MDA-MB-468 breast) | TGI (HCT-116 colon) | TGI (DU-145 prostate)
181 nM: TGI (NCI/ADR-RES ovarian)
< 10 nM: TGI (SK-MEL-2 melanoma) | TGI (HL-60(TB) leukemia) | TGI (CCRF-CEM leukemia) | TGI (SR leukemia)
114 nM: TGI (786-0 renal)
36 nM: TGI (A498 renal)
38 nM: TGI (SK-MEL-28 melanoma)
53.8 nM: TGI (ACHN renal)
133 nM: TGI (NCI-H226 lung)
86 nM: TGI (SF-539 CNS)
82.2 nM: TGI (M14 melanoma)
39.9 nM: TGI (PC-3 prostate)
41.1 nM: TGI (SN12C renal) | TGI (NCI-H23 lung)
51.1 nM: TGI (NCI-H460 NSCLC)
33.3 nM: TGI (SK-OV-3 ovarian)
26.4 nM: TGI (IGROV1 ovarian)
43.4 nM: TGI (MDA-MB-435 melanoma)
43.7 nM: TGI (OVCAR-3 ovarian)
398 nM: TGI (EKVX NSCLC)
94.8 nM: TGI (KM12 colon)
64.4 nM: TGI (HOP-62 NSCLC)
32.5 nM: TGI (HOP-92 NSCLC)
33.7 nM: TGI (OVCAR-5 ovarian) | TGI (HCC-2998 colon)
25.9 nM: TGI (MCF7 breast)
16.1 nM: TGI (UACC-62 melanoma)
18.5 nM: TGI (NCI-H522 lung)
45.9 nM: TGI (SNB-75 CNS)
257 nM: TGI (HCT-15 colon)
22.7 nM: TGI (COLO 205 colon)
14.8 nM: TGI (K-562 leukemia)
123 nM: TGI (BT-549 breast)
55.2 nM: TGI (TK-10 renal)
16.3 nM: TGI (MALME-3M melanoma)
39.1 nM: TGI (SF-268 CNS)
128 nM: TGI (UO-31 renal)

COCCNc1cc(NC(=O)N2CCCc3cc(CN4CCN(C)CC4=O)c(C=O)nc32)ncc1C#N
10800 nM: TGI (SR leukemia)
> 100000 nM: TGI (SK-MEL-2 melanoma) | TGI (COLO 205 colon) | TGI (NCI-H226 lung) | TGI (HL-60(TB) leukemia) | TGI (BT-549 breast) | TGI (SNB-19 CNS) | TGI (EKVX NSCLC) | TGI (NCI/ADR-RES ovarian) | TGI (KM12 colon) | TGI (CAKI-1 renal) | TGI (HOP-62 NSCLC) | TGI (MDA-MB-468 breast) | TGI (NCI-H460 NSCLC) | TGI (UACC-62 melanoma) | TGI (HCT-116 colon) | TGI (SF-268 CNS) | TGI (HOP-92 NSCLC) | TGI (K-562 leukemia) | TGI (OVCAR-5 ovarian) | TGI (A498 renal) | TGI (SK-MEL-28 melanoma) | TGI (OVCAR-8 ovarian) | TGI (CCRF-CEM leukemia) | TGI (SN12C renal) | TGI (A549 NSCLC) | TGI (IGROV1 ovarian) | TGI (OVCAR-3 ovarian) | TGI (HCT-15 colon) | TGI (M14 melanoma) | TGI (MCF7 breast) | TGI (TK-10 renal) | TGI (SK-OV-3 ovarian) | TGI (HCC-2998 colon) | TGI (SF-539 CNS) | TGI (UO-31 renal) | TGI (DU-145 prostate) | TGI (NCI-H23 lung) | TGI (ACHN renal) | TGI (SNB-75 CNS) | TGI (MALME-3M melanoma) | TGI (MDA-MB-435 melanoma) | TGI (PC-3 prostate) | TGI (NCI-H522 lung) | TGI (MDA-MB-231 breast) | TGI (786-0 renal) | TGI (SF-295 CNS)
inactive: GI50 (SK-MEL-2 melanoma) > 100000 nM | GI50 (COLO 205 colon) > 100000 nM | GI50 (NCI-H226 lung) > 100000 nM | GI50 (HL-60(TB) leukemia) 99600 nM | GI50 (BT-549 breast) > 100000 nM | GI50 (SNB-19 CNS) > 100000 nM | GI50 (EKVX NSCLC) > 100000 nM | GI50 (NCI/ADR-RES ovarian) > 100000 nM | GI50 (KM12 colon) > 100000 nM | GI50 (CAKI-1 renal) > 100000 nM | GI50 (HOP-62 NSCLC) > 100000 nM | GI50 (MDA-MB-468 breast) 4830 nM | GI50 (NCI-H460 NSCLC) > 100000 nM | GI50 (UACC-62 melanoma) > 100000 nM | GI50 (HCT-116 colon) > 100000 nM | GI50 (SF-268 CNS) > 100000 nM | GI50 (K-562 leukemia) 22200 nM | GI50 (OVCAR-5 ovarian) > 100000 nM | GI50 (A498 renal) > 100000 nM | GI50 (SK-MEL-28 melanoma) > 100000 nM | GI50 (OVCAR-8 ovarian) > 100000 nM | GI50 (CCRF-CEM leukemia) 27000 nM | GI50 (SN12C renal) > 100000 nM | GI50 (A549 NSCLC) > 100000 nM | GI50 (SR leukemia) 3310 nM | GI50 (IGROV1 ovarian) > 100000 nM | GI50 (OVCAR-3 ovarian) > 69300 nM | GI50 (HCT-15 colon) > 100000 nM | GI50 (M14 melanoma) > 100000 nM | GI50 (MCF7 breast) > 100000 nM | GI50 (TK-10 renal) > 84900 nM | GI50 (SK-OV-3 ovarian) > 100000 nM | GI50 (HCC-2998 colon) > 100000 nM | GI50 (SF-539 CNS) > 100000 nM | GI50 (UO-31 renal) > 100000 nM | GI50 (DU-145 prostate) > 100000 nM | GI50 (NCI-H23 lung) > 100000 nM | GI50 (ACHN renal) > 100000 nM | GI50 (SNB-75 CNS) > 100000 nM | GI50 (MALME-3M melanoma) > 100000 nM | GI50 (MDA-MB-435 melanoma) > 100000 nM | GI50 (PC-3 prostate) > 100000 nM | GI50 (NCI-H522 lung) > 42200 nM | GI50 (MDA-MB-231 breast) > 100000 nM | GI50 ([…]-0 renal) > 100000 nM | GI50 (SF-295 CNS) > 100000 nM
